Test [1] concerns H460 non-small cell lung cancer (NSCLC) cell line. As to the kind of experiment: Alamar blue cytotoxicity assay in H460 NSCLC tumour cell line. It counts as cell-based. Particulars: for Fold increase in potency: H460 cellular IC50 compared with seliciclib; for IC50: H460 cells, 72 hours, average of three independent experiments. Here is the method: In order to determine the cellular potency of the compounds, the cytotoxicity of each compound was determined against the H460 non-small cell lung cancer (NSCLC) cell line. Standard cytotoxicity methods were performed as follows: H460 cells were seeded in 96-well plates appropriately for their doubling time (3000 cells per well) in RPMI media containing 10% FCS and incubated overnight at 37° C., 5% CO2. The media was removed and 100 μl fresh media containing increasing concentrations of appropriate compound was added and the cells incubated for 72 hours at 37° C., 5% CO2. A 10% stock of alamar blue (Roche, Lewes, United Kingdom) was prepared in medium and 100 μl added to the cells which were incubated for 2 hours.
In general terms: Resazurin is reduced to fluorescent resorufin, in cell work by metabolically active cells.

A further test has as its target CDK2/cyclin A (Homo sapiens (Human), UniProt P24941). Put plainly: In-vitro recombinant kinase assay CDK2/cyclin A. It counts as biochemical. Here is the method: (§1) To evaluate the in-vitro kinase potency of the compounds, they were screened against CDK 2 and CDK9. Kinase assays were performed in 96-well plates using recombinant CDK/cyclins generated at Cyclacel. Ltd Dundee, UK. CDK2 and CDK9 assays were performed in a total volume of 25 μl in assay buffer (25 mM b-glycerophosphate, 20 mM MOPS, 5 mM EGTA, 1 mM DTT and 1 mM NaVO3, pH 7.4), into which were added 2-4 μg of active enzyme with appropriate substrates (purified histone H1 for CDK2/cyclin E, and CDK2/cyclin A, biotinyl-Ahx-(YSPTSPS)4 for CDK9/cyclin T1). […] CDK2 reactions were stopped by addition of 25 μl of 75 mM phosphoric acid, followed by filtration through P81 filterplates (Whatman Polyfiltronics, Kent, UK). For CDK9, the reaction was stopped by addition of 25 μl of 75 mM phosphoric acid, then 5 μl of 10 mg/ml avidin was added to each well and further incubated for 2 min followed by filtration as per CDK2 assay. After washing 3 times with 75 mM orthophosphoric acid, plates were dried, scintillant added and incorporated radioactivity measured in a scintillation counter (TopCount, Packard Instruments, Pangbourne, Berks, UK). Compounds for kinase assay were made up as 10 mM stocks in DMSO and diluted into 10% DMSO in assay buffer.
as §1

The target of another test is CDK2/cyclin E (Homo sapiens (Human), UniProt P24941). Put plainly: In-vitro recombinant kinase assay CDK2/cyclin E. The test is classed as biochemical. Here is the method:
as §1, §1

Another test deals with CDK9/cyclin T1 (Homo sapiens (Human), UniProt P50750). Put plainly: In-vitro recombinant kinase assay CDK9/cyclin T1. It counts as biochemical. Conditions: Table 2; average of duplicate points. As for the experimental part: as §1, §1
The target of a further test is CDK1B (Homo sapiens (Human), UniProt P06493). As to the kind of experiment: In-vitro kinase assay screen CDK1B (Table 4). The test is classed as biochemical.
The mark [2] stands for this setting: Table 2, average of duplicate points, read-out: CDK2/Cyclin E Average IC50.
The mark [3] stands for this setting: Table 2, average of duplicate points, read-out: CDK2/Cyclin A Average IC50.
Where [4] appears, read: Table 4, Run 1, read-out: CDK1B Run 1.
Where [5] appears, read: Table 4, Run 2, read-out: CDK1B Run 2.
[6] abbreviates: Table 4, mean of two runs, read-out: CDK1B Mean.
[7] abbreviates: Table 4, Run 1, read-out: CDK2A Run 1.
Where [8] appears, read: Table 4, Run 2, read-out: CDK2A Run 2.
The mark [9] stands for this setting: Table 4, Run 1, read-out: CDK2E Run 1.
Setting [10] is: Table 4, Run 2, read-out: CDK2E Run 2.
The mark [11] stands for this setting: Table 4, mean of two runs, read-out: CDK2E Mean.

Read-outs that look alike come from different tables or passages of the source.

Chain of CDK9/cyclin T1 (P50750 whole entry, species assumed): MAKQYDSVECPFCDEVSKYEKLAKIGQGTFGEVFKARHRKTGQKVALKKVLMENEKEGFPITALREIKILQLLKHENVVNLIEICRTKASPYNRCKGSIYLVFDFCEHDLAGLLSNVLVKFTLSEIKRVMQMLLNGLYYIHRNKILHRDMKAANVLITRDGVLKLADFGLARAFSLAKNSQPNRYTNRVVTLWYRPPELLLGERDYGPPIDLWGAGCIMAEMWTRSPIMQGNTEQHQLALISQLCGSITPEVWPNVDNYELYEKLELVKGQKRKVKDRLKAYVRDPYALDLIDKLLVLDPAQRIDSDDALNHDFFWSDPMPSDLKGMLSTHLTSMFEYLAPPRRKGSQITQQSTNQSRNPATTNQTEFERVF
Chain of CDK9/cyclin T1 (O60563 whole entry partner, species assumed): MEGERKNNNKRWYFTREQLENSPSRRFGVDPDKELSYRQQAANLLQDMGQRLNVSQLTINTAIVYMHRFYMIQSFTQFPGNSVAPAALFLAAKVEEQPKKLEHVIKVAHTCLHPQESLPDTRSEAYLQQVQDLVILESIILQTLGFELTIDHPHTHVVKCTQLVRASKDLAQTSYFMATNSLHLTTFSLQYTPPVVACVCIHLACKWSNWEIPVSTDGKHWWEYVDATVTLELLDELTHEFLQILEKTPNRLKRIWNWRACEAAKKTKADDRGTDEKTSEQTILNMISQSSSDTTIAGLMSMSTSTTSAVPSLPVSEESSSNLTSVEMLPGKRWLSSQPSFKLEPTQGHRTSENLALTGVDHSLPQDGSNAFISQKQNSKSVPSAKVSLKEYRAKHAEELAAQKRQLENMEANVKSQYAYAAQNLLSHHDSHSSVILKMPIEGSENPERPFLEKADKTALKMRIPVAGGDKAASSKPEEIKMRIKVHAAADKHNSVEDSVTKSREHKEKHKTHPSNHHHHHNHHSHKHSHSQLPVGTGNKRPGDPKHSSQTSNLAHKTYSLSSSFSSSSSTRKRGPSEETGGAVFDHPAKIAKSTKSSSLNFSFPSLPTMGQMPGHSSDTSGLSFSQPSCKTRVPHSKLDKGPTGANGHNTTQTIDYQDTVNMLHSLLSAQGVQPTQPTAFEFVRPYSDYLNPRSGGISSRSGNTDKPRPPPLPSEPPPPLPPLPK
Chain of CDK1B (P06493 whole entry): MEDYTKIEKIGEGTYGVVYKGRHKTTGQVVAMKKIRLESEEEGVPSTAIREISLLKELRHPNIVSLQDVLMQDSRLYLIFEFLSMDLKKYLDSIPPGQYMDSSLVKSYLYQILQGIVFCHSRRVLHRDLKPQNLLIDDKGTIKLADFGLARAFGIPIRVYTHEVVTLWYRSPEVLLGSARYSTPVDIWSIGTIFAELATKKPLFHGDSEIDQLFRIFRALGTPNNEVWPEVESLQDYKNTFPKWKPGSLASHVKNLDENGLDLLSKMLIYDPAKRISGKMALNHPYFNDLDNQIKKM
Chain of CDK1B (P14635 whole entry partner): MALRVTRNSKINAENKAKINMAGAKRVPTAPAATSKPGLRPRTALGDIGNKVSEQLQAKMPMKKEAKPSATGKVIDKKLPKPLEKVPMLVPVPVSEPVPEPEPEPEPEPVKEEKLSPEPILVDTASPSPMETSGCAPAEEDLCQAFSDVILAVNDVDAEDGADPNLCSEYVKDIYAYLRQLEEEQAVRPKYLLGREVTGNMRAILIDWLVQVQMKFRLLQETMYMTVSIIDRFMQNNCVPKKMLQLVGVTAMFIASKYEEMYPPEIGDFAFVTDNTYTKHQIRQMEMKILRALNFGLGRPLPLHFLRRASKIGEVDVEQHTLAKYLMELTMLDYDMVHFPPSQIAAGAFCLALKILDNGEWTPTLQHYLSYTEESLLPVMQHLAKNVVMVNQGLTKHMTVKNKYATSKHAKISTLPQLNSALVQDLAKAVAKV

Consider `CC[C@H](Nc1nc(NCc2ccc(C)nc2)c2ncn(C(C)C)c2n1)[C@@H](C)O` [[2], 2R,3S-3-(9-isopropyl-6-((6-methylpyridin-3-yl)methylamino)-9H-purin-2-ylamino)pentan-2-ol], for which the “Fold increase in potency” value in test [1] was found to be 0.3. Further, the IC50 in test [1] (Homo sapiens, NCI-H460, 72 h) is 35000 nM; on CDK2/cyclin A it was 3250 nM; on CDK2/cyclin E (setting [2]), 520 nM; at CDK9/cyclin T1, 3630 nM.

For `CC[C@H](Nc1nc(NCc2cccc(Cl)c2)c2ncn(C(C)C)c2n1)[C@@H](C)O` [[3], 2R,3S-3-(6-(3-Chlorobenzylamino)-9-isopropyl-9H-purin-2-ylamino)pentan-2-ol], the “Fold increase in potency” value in test [1] is given as 8.0. Further, the IC50 in test [1] (Homo sapiens, NCI-H460, 72 h) is 1500 nM; at CDK2/cyclin A (setting [3]), 100 nM; at CDK2/cyclin E (setting [2]) it was 10 nM; on CDK9/cyclin T1, 60 nM.

In the case of `CC[C@H](Nc1nc(NCc2cccc(F)c2)c2ncn(C(C)C)c2n1)[C@@H](C)O` [[4], 2R,3S-3-[6-(3-Fluorobenzylamino)-9-isopropyl-9H-purin-2-ylamino]-pentan-2-ol], in test [1], the “Fold increase in potency” value is listed as 8.0. Moreover, the IC50 in test [1] (Homo sapiens, NCI-H460, 72 h) was 1500 nM; at CDK2/cyclin A (setting [3]) it was 120 nM; at CDK2/cyclin E (setting [2]) it was 20 nM; at CDK9/cyclin T1, 80 nM.

For the compound `CC[C@H](Nc1nc(NCc2cccnc2)c2ncn(CC3CC3)c2n1)[C@@H](C)O` [[5], 2R,3S-3-(9-(Cyclopropylmethyl)-6-(pyridin-3-ylmethylamino)-9H-purin-2-ylamino)pentan-2-ol], the “Fold increase in potency” value in test [1] is 0.3. Moreover, the IC50 came to 34400 nM in test [1] (Homo sapiens, NCI-H460, 72 h); 830 nM at CDK2/cyclin E (setting [2]); 7890 nM at CDK9/cyclin T1.

For `CC[C@H](Nc1nc(NC2CC2)c2ncn(C(C)C)c2n1)[C@@H](C)O` [[6]], the “Fold increase in potency” value in test [1] stood at 7.1. Further, the IC50 is 1700 nM in test [1] (Homo sapiens, NCI-H460, 72 h); 50 nM on CDK2/cyclin E (setting [2]); 270 nM at CDK9/cyclin T1.

In the case of `CC[C@H](Nc1nc(NCC2CC2)c2ncn(C(C)C)c2n1)[C@@H](C)O` [[7], 2R,3S-3-(6-(Cyclopropylmethylamino)-9-isopropyl-9H-purine-2-ylamino)pentan-2-ol], the “Fold increase in potency” value in test [1] is 5.0. The IC50 in test [1] (Homo sapiens, NCI-H460, 72 h) came out at 2400 nM; at CDK2/cyclin E (setting [2]) it was 40 nM; at CDK9/cyclin T1, 380 nM.

For `CC[C@H](Nc1nc(NC2CCC2)c2ncn(C(C)C)c2n1)[C@@H](C)O` [[8], 2R,3S-3-(6-(Cyclobutylamino)-9-isopropyl-9H-purin-2-ylamino)pentan-2-ol], in test [1], the “Fold increase in potency” value was determined as 4.1. The IC50 in test [1] (Homo sapiens, NCI-H460, 72 h) is 2900 nM; at CDK2/cyclin E (setting [2]), 160 nM; on CDK9/cyclin T1 it was 500 nM.

As to `CC[C@H](Nc1nc(NCc2ccncc2)c2ncn(C(C)C)c2n1)[C@@H](C)O` [[9], 2R,3S-3-(9-Isopropyl-6-(pyridine-4-ylmethylamino)-9H-purin-2-ylamino)pentan-2-ol], the “Fold increase in potency” value in test [1] was found to be 5.2. Besides, the IC50 stood at 2300 nM in test [1] (Homo sapiens, NCI-H460, 72 h); 40 nM at CDK2/cyclin E (setting [2]); 610 nM at CDK9/cyclin T1.

For `CC[C@H](Nc1nc(NCc2cc(C)nc(C)c2)c2ncn(C(C)C)c2n1)[C@@H](C)O` [[10], 2R,3S-3-(9-Isopropyl-6-(2,6-dimethylpyridine-4-ylmethylamino)-9H-purin-2-ylamino)pentan-2-ol], the “Fold increase in potency” value in test [1] is recorded as 5.0. For the same compound, the IC50 in test [1] (Homo sapiens, NCI-H460, 72 h) was found to be 2400 nM; at CDK2/cyclin E (setting [2]), 50 nM; at CDK9/cyclin T1 it was 1040 nM.

`CC[C@H](Nc1nc(NCc2ccc(C(F)(F)F)nc2)c2ncn(C(C)C)c2n1)[C@@H](C)O` [[11], 2R,3S-3-(9-Isopropyl-6-((6-(trifluoromethyl)pyridine-3-yl)methylamino)-9H-purin-2-ylamino)pentan-2-ol]: the IC50 is 900 nM in test [1]; below 1000 nM in test [1] (Homo sapiens, NCI-H460, 72 h); 40 nM on CDK2/cyclin E (setting [2]); 250 nM on CDK9/cyclin T1. Further, the “Fold increase in potency” value in test [1] is listed as 13.3.

Regarding `CC[C@H](Nc1nc(NCc2cccc(C)n2)c2ncn(C(C)C)c2n1)[C@@H](C)O` [[12], 2R,3S-3-(9-Isopropyl-6-((6-methylpyridin-2-yl)methylamino)-9H-purin-2-ylamino)pentan-2-ol], in test [1], the “Fold increase in potency” value is reported as 1.7. Besides, the IC50 in test [1] (Homo sapiens, NCI-H460, 72 h) worked out at 7200 nM; at CDK2/cyclin E (setting [2]), 50 nM; on CDK9/cyclin T1, 2040 nM.

`CC[C@H](Nc1nc(NCc2ncccc2C)c2ncn(C(C)C)c2n1)[C@@H](C)O` [[13], 2R,3S-3-(9-Isopropyl-6-((3-methylpyridin-2-yl)methylamino)-9H-purin-2-ylamino)pentan-2-ol]: the “Fold increase in potency” value in test [1] stood at 0.6. In addition, the IC50 in test [1] (Homo sapiens, NCI-H460, 72 h) amounted to 19400 nM; at CDK2/cyclin E (setting [2]) it was 770 nM; at CDK9/cyclin T1, 5840 nM.

In the case of `CC(C)n1cnc2c(NCc3cccnc3)nc(NC[C@@H](C)O)nc21` [[14], (R)-1-(9-Isopropyl-6-(pyridin-3-ylmethylamino)-9H-purin-2-ylamino)propan-2-ol], the “Fold increase in potency” value in test [1] was 0.7. In addition, the IC50 in test [1] (Homo sapiens, NCI-H460, 72 h) amounted to 16700 nM; at CDK2/cyclin E (setting [2]) it was 290 nM; at CDK9/cyclin T1 it was 6530 nM.

In the case of `CC(C)n1cnc2c(NCc3cccnc3)nc(NCC(O)C(F)(F)F)nc21` (stereo not drawn) [[15], 1,1,1-Trifluoro-3-(9-isopropyl-6-(pyridin-3-ylmethylamino)-9H-purin-2-ylamino)propan-2-ol], the “Fold increase in potency” value in test [1] is given as 0.6. Also, the IC50 in test [1] (Homo sapiens, NCI-H460, 72 h) worked out at 20300 nM; on CDK2/cyclin E (setting [2]) it was 570 nM; at CDK9/cyclin T1 it was 7400 nM.

Consider `CCC(Nc1nc(NCc2cccnc2)c2ncn(C(C)C)c2n1)C(O)C(F)(F)F` (stereo not drawn) [[16], 1,1,1-Trifluoro-3-(9-isopropyl-6-(pyridin-3-ylmethylamino)-9H-purin-2-ylamino)pentan-2-ol], for which the “Fold increase in potency” value in test [1] stood at 2.9. Further, the IC50 amounted to 4100 nM in test [1] (Homo sapiens, NCI-H460, 72 h); 90 nM at CDK2/cyclin E (setting [2]); 2140 nM on CDK9/cyclin T1.

Turning to `CCC(Nc1nc(NCc2ccc(C(F)(F)F)nc2)c2ncn(C(C)C)c2n1)C(O)C(F)(F)F` (stereo not drawn) [[17], 1,1,1-Trifluoro-3-(9-isopropyl-6-((6-(trifluoromethyl)pyridin-3-yl)methylamino)-9H-2-ylamino)pentan-2-ol], the IC50 at CDK1B (setting [4]) stood at 6120 nM; on CDK1B (setting [5]), 11200 nM; at CDK1B (setting [6]) it was 8680 nM; at CDK2/cyclin A (setting [7]) it was 305 nM; at CDK2/cyclin A (setting [8]), 431 nM; at CDK2/cyclin A (Table 4, mean of two runs, read-out: CDK2A Mean) it was 368 nM. The values for the IC50 at CDK2/cyclin E (setting [9]), at CDK2/cyclin E (setting [10]) and on CDK2/cyclin E (setting [11]) were 318 nM, 307 nM and 313 nM, respectively.

For `CC(C)n1cnc2c(NCc3cccnc3)nc(NCC(O)(C(F)(F)F)C(F)(F)F)nc21` [[18], 1,1,1,3,3,3-Hexafluoro-2-((9-isopropyl-6-(pyridine-3-ylmethylamino)-9H-purin-2-ylamino)methyl)propan-2-ol], the IC50 is 5880 nM at CDK1B (setting [4]); 6720 nM at CDK1B (setting [5]); 6300 nM at CDK1B (setting [6]); 704 nM on CDK2/cyclin A (setting [7]); 1190 nM on CDK2/cyclin A (setting [8]); 336 nM at CDK2/cyclin E (setting [9]). The values for the IC50 at CDK2/cyclin E (setting [10]) and on CDK2/cyclin E (setting [11]) were 279 nM and 308 nM, respectively.

Values taken from US8592581B2, “Trisubstituted purine derivatives” (Cyclacel Limited, priority 2007, dated 2013).
